# Target: T1, human recombinant IL-17A (Homo sapiens, UniProt Q16552)
# T1 construct: purchased R&D Systems 7955-IL/CF
# T1 sequence (Q16552 24-155): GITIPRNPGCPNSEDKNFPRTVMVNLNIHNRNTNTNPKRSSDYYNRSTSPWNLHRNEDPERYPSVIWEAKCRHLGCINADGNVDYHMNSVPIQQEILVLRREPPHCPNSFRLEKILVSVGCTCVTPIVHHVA
# Test: IL-17A AlphaLISA assay (block binding of IL-17A to its receptor IL-17RA)
# Details: compounds pre-incubated with the IL-17A for 30 min (indicated by * in Table A); read-out: AlphaLISA pIC50 (converted)
# Summary of the method: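 Compounds pre-incubated 24 h at RT (30 min where flagged) with human IL-17A (7.5 nM stock) before IL-17RA/Fc (5 nM stock), 90 min. Read by AlphaLISA via anti-Fc acceptor and biotin anti-IL-17A/streptavidin donor beads, 680/615 nm. 4-parameter fit; DMSO and 6 μM reference inhibitor as controls; pIC50.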
row,Structure (SMILES),IC50 [nM]
1,"Cc1n[nH]c(C)c1-c1ccc(NC(=O)[C@@H](NC(=O)c2ccnn2C)C2CCCCC2)cn1 [Example 207, (S)—N-(1-cyclohexyl-2-((6-(3,5-dimethyl-1H-pyrazol-4-yl)pyridin-3-yl)amino)-2-oxoethyl)-1-methyl-1H-pyrazole-5-carboxamide]",501
2,"Cc1cncc(C)c1-c1ccc(NC(=O)C(NC(=O)c2ccnn2C)C2CCCCCCC2)cc1 (stereo not shown) [Example 103, N-(1-Cyclooctyl-2-((4-(3,5-dimethylpyridin-4-yl)phenyl)amino)-2-oxoethyl)-1-methyl-1H-pyrazole-5-carboxamide]",126
3,"Cc1nn(C)c(C)c1-c1ccc(NC(=O)[C@@H](NC(=O)c2ccnn2C)[C@H]2CC[C@H](C)CC2)nc1 [Example 217, 1-methyl-N—((S)-1-((1r,4S)-4-methylcyclohexyl)-2-oxo-2-((5-(1,3,5-trimethyl-1H-pyrazol-4-yl)pyridin-2-yl)amino)ethyl)-1H-pyrazole-5-carboxamide]",501
4,"Cc1cnn(C)c1-c1ccc(NC(=O)C(NC(=O)c2ccnn2C)C2C3(CC3)CCC23CC3)nc1 (stereo not shown) [Example 220, N-(2-((5-(1,4-dimethyl-1H-pyrazol-5-yl)pyridin-2-yl)amino)-1-(dispiro[2.1.2^5.2^3]nonan-4-yl)-2-oxoethyl)-1-methyl-1H-pyrazole-5-carboxamide]",31.6
5,"Cc1cnn(C)c1-c1ccc(NC(=O)[C@@H](NC(=O)c2cnnn2C)[C@H]2CC[C@H](C)CC2)nc1 [Example 167, N—((S)-2-((5-(1,4-dimethyl-1H-pyrazol-5-yl)pyridin-2-yl)amino)-1-((1r,4S)-4-methylcyclohexyl)-2-oxoethyl)-1-methyl-1H-1,2,3-triazole-5-carboxamide]",316
6,"Cc1cnn(C)c1-c1ccc(NC(=O)[C@@H](NC(=O)c2conc2C(C)C)[C@H]2CC[C@H](C)CC2)nc1 [Example 191, N—((S)-2-((5-(1,4-dimethyl-1H-pyrazol-5-yl)pyridin-2-yl)amino)-1-((1r,4S)-4-methylcyclohexyl)-2-oxoethyl)-3-isopropylisoxazole-4-carboxamide]",39.8
7,"CCn1nccc1C(=O)N[C@H](C(=O)Nc1ccc(-c2c(C)c[n+]([O-])cc2C)cn1)[C@H]1CC[C@H](C)CC1 [Example 139, 6-((S)-2-(1-Ethyl-1H-pyrazole-5-carboxamido)-2-((1r,4S)-4-methylcyclohexyl)acetamido)-3′,5′-dimethyl-[3,4′-bipyridine]1′-oxide]",126
8,"COCc1onc(C)c1-c1ccc(NC(=O)[C@@H](NC(=O)c2ccnn2C)C2CCCCCC2)nc1 [Example 150, (S)—N-(1-cycloheptyl-2-((5-(5-(methoxymethyl)-3-methylisoxazol-4-yl)pyridin-2-yl)amino)-2-oxoethyl)-1-methyl-1H-pyrazole-5-carboxamide]",398
9,"Cn1nccc1C(=O)N[C@H](C(=O)Nc1ccc(-c2c(CO)cnn2C)cn1)C1CCCCCC1 [Example 182, (S)—N-(1-cycloheptyl-2-((5-(4-(hydroxymethyl)-1-methyl-1H-pyrazol-5-yl)pyridin-2-yl)amino)-2-oxoethyl)-1-methyl-1H-pyrazole-5-carboxamide]",31.6
10,"CCn1nccc1C(=O)N[C@H](C(=O)Nc1ccc(-c2c(C)nnn2C)cn1)C1CCCCCC1 [Example 149, (S)—N-(1-cycloheptyl-2-((5-(1,4-dimethyl-1H-1,2,3-triazol-5-yl)pyridin-2-yl)amino)-2-oxoethyl)-1-ethyl-1H-pyrazole-5-carboxamide]",79.4
11,"Cc1cnn(C)c1-c1ccc(NC(=O)[C@@H](NC(=O)c2conc2C)C2CCCCC2)nc1 [Example 181, (S)—N-(1-cyclohexyl-2-((5-(1,4-dimethyl-1H-pyrazol-5-yl)pyridin-2-yl)amino)-2-oxoethyl)-3-methylisoxazole-4-carboxamide]",158
12,"Cc1cnn(C)c1-c1ccc(NC(=O)[C@@H](NC(=O)c2ccnn2C)[C@H]2CC[C@H](C)CC2)nc1 [Example 106, N—((S)-2-((5-(1,4-Dimethyl-1H-pyrazol-5-yl)pyridin-2-yl)amino)-1-((1r,4S)-4-methylcyclohexyl)-2-oxoethyl)-1-methyl-1H-pyrazole-5-carboxamide]",100
13,"Cc1cnn(C)c1-c1ccc(NC(=O)[C@@H](NC(=O)c2conc2C(C)(C)C)[C@H]2CC[C@H](C)CC2)nc1 [Example 192, 3-(tert-butyl)-N—((S)-2-((5-(1,4-dimethyl-1H-pyrazol-5-yl)pyridin-2-yl)amino)-1-((1r,4S)-4-methylcyclohexyl)-2-oxoethyl)isoxazole-4-carboxamide]",200
14,"Cc1noc(C)c1-c1cnc(NC(=O)[C@@H](NC(=O)c2ccnn2C)C2CCCCCC2)c(F)c1 [Example 162, (S)—N-(1-cycloheptyl-2-((5-(3,5-dimethylisoxazol-4-yl)-3-fluoropyridin-2-yl)amino)-2-oxoethyl)-1-methyl-1H-pyrazole-5-carboxamide]",200
15,"Cc1cnn(C)c1-c1ccc(NC(=O)C(NC(=O)c2ccnn2C)C2CCCCCCC2)nc1 (stereo not shown) [Example 113, N-(1-Cyclooctyl-2-((5-(1,4-dimethyl-1H-pyrazol-5-yl)pyridin-2-yl)amino)-2-oxoethyl)-1-methyl-1H-pyrazole-5-carboxamide]",158
16,"CCn1nncc1C(=O)N[C@H](C(=O)Nc1ccc(-c2c(C)cnn2C)cn1)C1CCCCCC1 [Example 141, (S)—N-(1-Cycloheptyl-2-((5-(1,4-dimethyl-1H-pyrazol-5-yl)pyridin-2-yl)amino)-2-oxoethyl)-1-ethyl-1H-1,2,3-triazole-5-carboxamide]",158
17,"Cc1nocc1C(=O)N[C@H](C(=O)Nc1ccc(-c2c(C)noc2C)nc1)C1CCCCCC1 [Example 170, (S)—N-(1-cycloheptyl-2-((6-(3,5-dimethylisoxazol-4-yl)pyridin-3-yl)amino)-2-oxoethyl)-3-methylisoxazole-4-carboxamide]",158

# Same assay, conditions: compounds pre-incubated with the IL-17A for 24 h at room temperature; read-out: AlphaLISA pIC50 (converted)
row,Structure (SMILES),IC50 [nM]
1,"Cn1nccc1C(=O)N[C@H](C(=O)Nc1ccc(-c2ccncc2CC(=O)N2CCCC2)cc1)[C@H]1CC[C@H](C)CC1 [Example 86, 1-Methyl-N—((S)-1-((1r,4S)-4-methylcyclohexyl)-2-oxo-2-((4-(3-(2-oxo-2-(pyrrolidin-1-yl)ethyl)pyridin-4-yl)phenyl)amino)ethyl)-1H-pyrazole-5-carboxamide]",251
2,"Cn1nccc1C(=O)N[C@H](C(=O)Nc1ccc(-c2ccncc2CC(=O)N2CCCC2)cc1)C(c1ccccc1)c1ccccc1 [Example 78, (S)-1-methyl-N-(1-oxo-1-((4-(3-(2-oxo-2-(pyrrolidin-1-yl)ethyl)pyridin-4-yl)phenyl)amino)-3,3-diphenylpropan-2-yl)-1H-pyrazole-5-carboxamide]",25.1
3,"Cc1cnccc1-c1ccc(NC(=O)[C@@H](NC(=O)c2ccnn2C)C(c2ccccc2)c2ccccc2)cc1 [Example 4, (S)-1-methyl-N-(1-((4-(3-methylpyridin-4-yl)phenyl)amino)-1-oxo-3,3-diphenylpropan-2-yl)-1H-pyrazole-5-carboxamide]",20
4,"Cc1cc(-c2ccc(NC(=O)[C@@H](NC(=O)c3ccnn3C)C(c3ccccc3)c3ccccc3)cc2F)c(C)cn1 [Example 56, (S)—N-(1-((4-(2,5-dimethylpyridin-4-yl)-3-fluorophenyl)amino)-1-oxo-3,3-diphenylpropan-2-yl)-1-methyl-1H-pyrazole-5-carboxamide]",100
5,"Cc1cc(=O)[nH]cc1-c1ccc(NC(=O)[C@@H](NC(=O)c2ccnn2C)C(c2ccccc2)c2ccccc2)cc1 [Example 50, (S)-1-methyl-N-(1-((4-(4-methyl-6-oxo-1,6-dihydropyridin-3-yl)phenyl)amino)-1-oxo-3,3-diphenylpropan-2-yl)-1H-pyrazole-5-carboxamide]",39.8
6,"Cn1nccc1C(=O)N[C@H](C(=O)Nc1ccc(-c2ccncc2C#N)cc1)C(c1ccccc1)c1ccccc1 [Example 43, (S)—N-(1-((4-(3-cyanopyridin-4-yl)phenyl)amino)-1-oxo-3,3-diphenylpropan-2-yl)-1-methyl-1H-pyrazole-5-carboxamide]",126
7,"Cn1nccc1C(=O)N[C@H](C(=O)Nc1ccc(-c2cnc3ccccn23)cc1)C(c1ccccc1)c1ccccc1 [Example 39, (S)—N-(1-((4-(imidazo[1,2-a]pyridin-3-yl)phenyl)amino)-1-oxo-3,3-diphenylpropan-2-yl)-1-methyl-1H-pyrazole-5-carboxamide]",200
8,"COc1c[n+]([O-])ccc1-c1ccc(NC(=O)[C@@H](NC(=O)c2ccnn2C)C(c2ccccc2)c2ccccc2)cc1 [Example 25, (S)-3-methoxy-4-(4-(2-(1-methyl-1H-pyrazole-5-carboxamido)-3,3-diphenylpropanamido)phenyl)pyridine 1-oxide]",5.01
9,"Cc1cc(=O)n(C)cc1-c1ccc(NC(=O)[C@@H](NC(=O)c2ccnn2C)C(c2ccccc2)c2ccccc2)cc1 [Example 12, (S)—N-(1-((4-(1,4-dimethyl-6-oxo-1,6-dihydropyridin-3-yl)phenyl)amino)-1-oxo-3,3-diphenylpropan-2-yl)-1-methyl-1H-pyrazole-5-carboxamide]",10
10,"Cc1ncc(C)c(-c2ccc(NC(=O)[C@@H](NC(=O)c3ccnn3C)C(c3ccccc3)c3ccccc3)cc2)n1 [Example 37, (S)—N-(1-((4-(2,5-dimethylpyrimidin-4-yl)phenyl)amino)-1-oxo-3,3-diphenylpropan-2-yl)-1-methyl-1H-pyrazole-5-carboxamide]",39.8
11,"Cn1nccc1C(=O)N[C@H](C(=O)Nc1ccc(-c2cc[nH]c(=O)c2)c(F)c1)C(c1ccccc1)c1ccccc1 [Example 35, (S)—N-(1-((3-fluoro-4-(2-oxo-1,2-dihydropyridin-4-yl)phenyl)amino)-1-oxo-3,3-diphenylpropan-2-yl)-1-methyl-1H-pyrazole-5-carboxamide]",25.1
